pIC50: −log10 of the molar value.
Experiments:
[1] = Cytotoxicity against mouse Microglia cells assessed as reduction in cell viability; assay type: toxicity, cell-based
Microglia = test: Anti-inflammatory activity against mouse Microglia cells assessed as reduction in LPS-induced IL-1beta production; assay type: functional, cell-based

## C=C1[C@@H]2[C@H]3OC(=O)[C@@H](CNC(=O)[C@H](CO)CN4CCC[C@H]4C(=O)O)[C@@H]3[C@@H](O)CC(=C)[C@@H]2C[C@@H]1O
[1]
  CC50: > 100 µM
Microglia
  pIC50: 4.20

## C=C1[C@@H]2[C@H]3OC(=O)[C@@H](C)[C@@H]3[C@@H](O)CC(=C)[C@@H]2C[C@@H]1O
[1]
  CC50: > 100 µM
Microglia
  pIC50: 4.27

## C=C1[C@@H]2[C@H]3OC(=O)[C@@H](C)[C@@H]3[C@@H](O[C@@H]3O[C@H](CO)[C@@H](O)[C@H](O)[C@H]3O)CC(=C)[C@@H]2C[C@@H]1O
[1]
  CC50: > 100 µM
Microglia
  pIC50: 4.35

## C=C1[C@@H]2[C@H]3OC(=O)[C@@H](CN4C=C(C(N)=O)C[C@@H](CO)C4=O)[C@@H]3[C@@H](O)CC(=C)[C@@H]2C[C@@H]1O
[1]
  CC50: > 100 µM
Microglia
  pIC50: 4.06

Reference: ChEMBL document CHEMBL5120761, “Lanicepines A and B, Sesquiterpenes with Amino Acid-Derived Substituents from the Flowering Aerial Parts of Saussurea laniceps” (J Nat Prod, 2022)
